Measured values taken from patent US20240197891A1, “PHARMACEUTICAL COMPOSITIONS COMPRISING POH DERIVATIVES” (UNIVERSITY OF SOUTHERN CALIFORNIA, priority 2021, published 2024).

How the values were obtained:
[1] = system: TNF-α; assay: Serum TNF-α following UV exposure; type: in vivo, mouse
Procedure: (§1) SKH-1 hairless mice were treated with 10 mg/kg POH-LA conjugate freshly prepared daily. The POH-LA conjugate was formulated in glycerol:ethanol (90:10) while the control animals received the glycerol:ethanol vehicle only or the commercially available sunblock (Well & Good Sun Protection Wipes SPF 15). Additional test groups were treated with POH formulated in the glycerol:ethanol vehicle or linoleic acid formulated in the glycerol:ethanol vehicle. 50 μL of each formulation was placed on a area 1 cm^2 area that was exposed to the UV light. The mice were treated with their respective formulations after exposure to the UV light. In FIG. 22A, the mouse was treated with sunblock. In FIG. 22B, the mouse was treated with POH. In FIG. 22C, the mouse was treated with linoleic acid. In FIG. 22D, the mouse was treated with POH-LA conjugate. In FIG. 22D, the mouse was treated with the glycerol:ethanol vehicle only. The POH-LA conjugate, POH or linoleic acid solutions were gently spread on the skin surface and allowed to air dry. The sunblock mouse was gently wiped on the exposure area with the sunblock towelette. This exposure and treatment went on for a maximum of 10 weeks. Throughout the experimental period the animals were photographed and weighed. At the end of the experimental period the mice were photographed and euthanized, followed by skin and blood collection. Blood was analyzed for markers of inflammation and DNA recovered from the exposed area of the skin and analyzed for markers of DNA damage.
(§2) Furthermore, blood samples were taken from each mouse 4 hours after the last cutaneous treatment. About 0.5 mL of blood was collected by cardiac puncture […]. Serum was aliquoted in Eppendorf tubes and store at −80° C. as preparation for cytokine analyses. […]
(§3) Mice were treated with 10 mg/kg POH-LA conjugate freshly prepared daily. […] Blood was analyzed for markers of inflammation and DNA recovered from the exposed area of the skin and analyzed for markers of DNA damage.

[2] = system: IL-6; assay: Serum IL-6 following UV exposure; type: in vivo, mouse
Procedure: as §1, with “In FIG. 22D, the mouse was treated with the glycerol:ethanol vehicle only.” left out
as §2, §3

C=C(C)[C@@H]1CC=C(COC(=O)CCCCCCC/C=C\C/C=C\CCCCC)CC1 [POH-LA conjugate, Octadeca-9,12-dienoic acid 4-isopropenyl-cyclohex-1-enylmethyl ester]
TNF-α levels [1]: 72.6 ± 22.8 pg/mL
IL-6 levels [2]: 15.2 ± 4.1 pg/mL

C=C(C)[C@@H]1CC=C(CO)CC1 [POH, perillyl alcohol]
TNF-α levels [1]: 103.2 ± 18.0 pg/mL
IL-6 levels [2]: 17.9 ± 2.8 pg/mL
